This is an account of results in PMC9138994 (Biomolecules, 2022).

The test system of assay [1] is C57BL/6 mice. In words: Forced swim test (FST). The assay is classed as in vivo. Particulars: for immobility time in FST: acute i.p. pretreatment, ST-2300 or PIM 5, 10, 15 mg/kg, vs saline controls, adult male C57BL/6 mice, 6 min. Here is the method:
(§1) Inbred adult male C57BL/6 mice (aged 10–12 weeks and weighing 20–25 g) were obtained from the animal facility in the College of Medicine and Health Sciences, United Arab Emirates University. The animals were maintained in a separate air-conditioned room with controlled temperature and humidity (24 ± 2 °C and 55 ± 15%, respectively), with a 12 h light/dark cycle, and ad libitum to food and water. All the experiments were performed between 9.00 am and 3.00 pm. The procedures were approved by the Institutional Animal Ethics Committee of College of Medicine and Health Sciences/United Arab Emirates University (Approval No. ERA-2019-6010). To reduce the suffering of the animals, a minimum number of animals were used in this study, whereas the objectives were not compromised.
(§2) These experiments provide the first behavioral assessment of the ST-2300 in anxiety-like and depression-like behaviors in mice. All doses are expressed in terms of the free base of all test compounds. The drugs used in the current study were dissolved in saline and injected i.p. at a volume of 1 mL/kg. All experimental procedures were conducted in a blinded fashion in which the experimenter was uninformed about the specific treatment groups to which an animal group belonged. Saline, ST-2300 (5, 10, and 15 mg/kg), PIM (5, 10, and 15 mg/kg), FLX (10 mg/kg), RAM (10 mg/kg), and DZP (1 mg/kg) were injected i.p. 30–45 min before the beginning of the behavioral experiments.
The FST test was performed according to previously described protocols. Mice were individually placed into glass cylinders containing 15 cm of water at ∼25 °C. The mice were left in the cylinders for 6 min and immobility was observed and analyzed. The mice were then removed from the container and left to dry in a heated enclosure before being returned to their home cages. The mice were considered to be immobile when they ceased struggling and remained floating motionless in the water (without any vertical or horizontal movements), making only the movements necessary to keep their heads above the water level as described previously.

In assay [2] the test system is C57BL/6 mice. Description: Open field test (OFT). Format: in vivo. Particulars: for time spent in the center of the arena in OFT (anxiety level) / number of total line crossings in OFT (locomotor activity): i.p. pretreatment, 10 min test session; for time spent in the center of the arena in OFT (anxiety level): ST-2300 10 or 15 mg/kg, PIM 5–15 mg/kg, DZP 1 mg/kg, vs controls; for number of total line crossings in OFT (locomotor activity): ST-2300 or PIM 5–15 mg/kg, C57BL/6 mice. The procedure: as §1, §2
To analyze the effect of ST-2300 on locomotion and anxiety behaviors in animals, OFT was carried out. In addition to locomotor activity, the OFT is usually used to measure anxiety-like behaviors in experimental rodents. The test provides a unique opportunity to systematically assess novel environment exploration, general locomotor activity, and provide an initial screen for anxiety-related behavior in experimental rodents. The OF box consisted of a square box (45 × 45 × 30 cm). A 23 × 23 cm area in the center region was defined as the central arena, and the remaining area was defined as periphery area. The mice with a higher degree of anxiety prefer to stay closer to the walls of the box and spend less time in the center, whereas increased time spent in the central area indicates low anxiety level and high exploratory behaviors. The first 5 min of the experiment were considered as habituation, followed by 10 min test session. Total distance moved in the whole arena, time spent in the center, and in the periphery were recorded for 10 min using a charge-coupled, camera-assisted, motion-tracking apparatus and software (EthoVision 3.1, Noldus Information Technology, Wageningen, The Netherlands). After each mouse completed the test, the OF chamber was cleaned thoroughly with 70% (volume/volume; vol/vol) alcohol.

Assay [3] deals with T1, human 5-HT7b (Homo sapiens, UniProt P34969).
T1 construct: expressed in transfected cells; host or cells: HEK293
T1 sequence (P34969 1-432): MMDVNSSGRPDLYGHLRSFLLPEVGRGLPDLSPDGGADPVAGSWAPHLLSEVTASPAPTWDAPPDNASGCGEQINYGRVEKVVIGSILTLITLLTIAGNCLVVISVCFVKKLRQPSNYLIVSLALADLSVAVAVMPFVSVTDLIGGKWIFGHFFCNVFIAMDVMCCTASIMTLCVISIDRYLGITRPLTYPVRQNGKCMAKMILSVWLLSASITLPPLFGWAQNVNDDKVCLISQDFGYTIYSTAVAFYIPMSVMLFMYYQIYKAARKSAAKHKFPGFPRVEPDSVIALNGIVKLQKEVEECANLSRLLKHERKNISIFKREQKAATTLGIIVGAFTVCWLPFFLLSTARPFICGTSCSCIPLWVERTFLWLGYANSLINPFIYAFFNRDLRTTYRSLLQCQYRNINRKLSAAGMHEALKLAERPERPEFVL
Description: Radioligand displacement assay at 5-HT7 ([3H]-5-CT, HEK293 cells). Format: binding. The note with it: HEK293 cells stably expressing h5-HT7, read-out: Ki (n), 5-HT7. Here is the method: HEK293 cells with a stable expression of human 5-HT1A, 5-HT6, 5-HT7b, and D2L (prepared with the use of Lipofectamine 2000), or CHO-K1 cells with plasmids containing the sequence coding for the human serotonin 5-HT2A receptor (PerkinElmer), were maintained at 37 °C in a humidified atmosphere with 5% CO2 and grown in Dulbecco’s Modified Eagle Medium containing 10% dialyzed fetal bovine serum and 500 µg/mL G418 sulfate. For membrane preparation, cells were subcultured in 150 cm^2 flasks, grown to 90% confluence, washed twice with prewarmed to 37 °C phosphate buffered saline (PBS) and pelleted by centrifugation (200× g) in PBS containing 0.1 mM EDTA and 1 mM dithiothreitol. Prior to membrane preparation, the pellets were stored at −80 °C.
Cell pellets were thawed and homogenized in 10 volumes of assay buffer using an Ultra Turrax tissue homogenizer, and were then centrifuged twice at 35,000× g for 15 min at 4 °C, with incubations for 15 min at 37 °C in between. […] The process of equilibration was terminated by rapid filtration through Unifilter plates with a 96-well cell harvester and the radioactivity retained on the filters was quantified on a Microbeta plate reader (PerkinElmer, Waltham, MA, USA). […] The inhibition constants (Ki) were calculated from the Cheng-Prusoff equation [38]. Results are expressed as means of two separate experiments.

`CC(C)COc1ccc(CNC(=O)N(Cc2ccc(F)cc2)C2CCN(C)CC2)cc1` [Pimavanserin, reference compound]: the “immobility time in FST” value in assay [1] is “significant and dose-dependent decrease of immobility time”. Besides, in assay [2], the “time spent in the center of the arena in OFT (anxiety level)” value is “failed to provide any appreciable effects on the anxiety levels” and the “number of total line crossings in OFT (locomotor activity)” value is given as “did not alter the number of total line crossings”. Besides, the Ki in assay [3] was more than 10 µM.
As to `CN1CCC(N(Cc2ccc(F)cc2)C(=O)NCc2ccc(OCCCN3CCCCC3)cc2)CC1` [ST-2300, 1-(4-Fluorobenzyl)-1-(1-methylpiperidin-4-yl)-3-{4-[3-(piperidin-1-yl)propoxy]benzyl}urea], the “immobility time in FST, co-administration of RAM” value in assay [1] (ST-2300 10 mg/kg i.p. co-administered with H3R agonist RAM 10 mg/kg i.p., vs ST-2300 alone) was “significant increase of immobility time”. The “immobility time in FST” value in assay [1] is “significant and dose-dependent decrease of immobility time”. Besides, the “time spent in the center in OFT, co-administration of RAM” value in assay [2] (ST-2300 10 mg/kg i.p. co-administered with RAM 10 mg/kg i.p.) is on record as “could not be reversed by co-administration with RAM”. Also, in assay [2], the “time spent in the center of the arena in OFT (anxiety level)” value is reported as “dose-dependent increase of time spent in the center of the arena” and the “number of total line crossings in OFT (locomotor activity)” value was “did not alter the number of total line crossings”. Besides, in assay [3], the inhibition constant Ki was more than 10 µM.
